Read-outs that look alike come from different tables or passages of the source.
Tests used:
Stat6 (pT641) = experiment: Signaling pathway screen in SMN2-NSC34 cells; type: cell-based, mouse
SMN2 = SMN2 splicing pattern, semi-quantitative RT-PCR in SMN2-NSC34 cells; type: cell-based, mouse; parameters: key to SMN2 splicing pattern SMN2-NSC34: −: no effect; +: effective; +++: most effective
Experimental: Cell culture and chemical/dsRNA treatment. Mouse embryonic fibroblasts (MEFs) were prepared using the standard protocol. Briefly, E13.5 day embryo was isolated; the uterine deciduas were cut away, and the yolk sac was removed. The embryo was then scraped out to remove non-fibroblastic tissue, and the head severed for genotyping. Embryo body was minced in 0.25% Trypsin-EDTA and incubated for 30 min. It was then added to MEF culture media, and the cell suspension spun for ˜5 min at 1,000 rpm in the tissue culture centrifuge to pellet cells. The supernatant was aspirated off and the cell pellet immediately resuspended in 10 mL of fresh MEF culture media. The MEFs were allowed to reach confluency so the cells could be passaged for further experiments. Cultured MEFs and SMN2-NSC34 cells were maintained in Dulbecco's modified Eagle medium (Invitrogen, Carlsbad, Calif.) containing 10% heat-inactivated fetal bovine serum (Hyclone, Logan, Utah) and 1% penicillin-streptomycin (Invitrogen, Carlsbad, Calif.) and were incubated at 37° C. in a 5% CO2 humidified atmosphere. The cells were plated the day preceding treatment with each chemical and harvested at the indicated time.
Semi-quantitative PCR/RT-PCR. The genomic DNA from E13.5 SMA embryos was extracted. A specific primer pair, SMN forward 5′-[…]-3′ (SEQ ID NO:21) and SMN backward 5′-[…]-3′ (SEQ ID NO:22), was designed for recognition of both murine Smn and human SMN2. The PCR program initially started with a 95° C. denaturation for 10 min, followed by 19 to 26 cycles of 95° C./1 min. 53° C./1.5 min, 72° C./2 min to assay the linear range for both Smn and SMN2. For RT-PCR assay, total RNA was extracted at indicated time points from SMN2-NSC34 cells with sodium vanadate, TSA, and aclarubicin treatment or with an increasing amount of Stat5A1*6 transfection by using the TRizol reagent (Invitrogen, Carlsbad, Calif.). To amplify the exon7 inclusion/exclusion form of SMN2 transcripts, RT-PCR were performed using a primer set P5P6 as previously described (15). The transcript from the mouse glyceraldehyde-3-phosphate dehydrogenase (Gapdh) gene or the β-Actin gene was amplified using the primer pairs: Gapdh forward: 5′-[…]-3′ (SEQ ID NO:23), and backward: 5′-[…]-3′ (SEQ ID NO:24) (56° C.), and β-Actin forward: 5′-[…]-3′ (SEQ ID NO:25), and backward 5′-[…]-3′ (SEQ ID NO:26) (59° C.), and this allowed control of equal amounts of template. […] The gel images were digitally captured with a CCD camera and analyzed with the Alphalmager™. […] Relative total SMN2 transcript levels were determined from Stat5A1*6 transfected SMN2-NSC34 cells in a minimum of three independent experiments. Differences in ratios were determined to be significant by an independent two-tailed t-test, with *, P<0.05, **, P<0.005, ***, p<0.001.

ERK1/2 (pT202/pY204) = experiment: Signaling pathway screen in SMN2-NSC34 cells; type: cell-based, mouse
Stat2 (pY705) = experiment: Signaling pathway screen in SMN2-NSC34 cells; type: cell-based, mouse
Jak1 (pY1022/pY1023) = conditions: SMN2-NSC34 cells
Experimental: Western blot analysis. Cells treated by dsRNA, compounds or Stat5A1*6 transfected were detached by scraping, pelletting and rinsing in PBS. Cell pellets were collected after centrifugation and lysed on ice in modified RIPA buffer (50 mM Tris-HCl (pH7.4), 1% NP-40, 0.25% deoxycholic acid, 0.15M NaCl, 1 mM EDTA, 1 mM PMSF/NaF/sodium orthovanadate, and protease inhibitors cocktail (Roche, Mannheim, Germany) for 30 min. After centrifugation, the supernatants were collected and kept frozen at −20° C. Protein concentrations were determined by Bio-Rad protein assay method. For Western blot analysis, protein samples were boiled for 5 min and electrophoresed on 8% or 10% SDS-polyacrylamide gel in a 1× running buffer (25 mM Tris, 192 mM glycine, 3.4 mM SDS, pH 8.3) and subsequently electrotransferred to Polyvinylidene Fluoride tansfer membrane (Pall, Pensacola, Fla.) using a TE 22 mini-tank transfer unit (Amersham Biosciences, San Francisco, Calif.) at 35 volts overnight in transfer buffer (25 mM Tris, 192 mM glycine, 20% methanol, pH8.3). The blotting membranes were incubated in blocking solution (PBS, 5% non-fat milk, 0.2% Tween-20) for 1 hour at room temperature, and then incubated in the same solution with the primary antibody (human-specific SMN/1:1000; SMN/1:5000, Transduction Laboratories, Lexington, Ky.; phospho-Stat5a/b/1:1000, Cell signaling, Beverly, Mass.; phospho-Jak2/1:1000, Upstate, Lake Placid, N.Y.; Flag BioM2/1:1000, Sigma, St. Louis, MO; c-myc/1:200, Santa Cruz Biotech, Santa Cruz, Calif.; α-Tubilin/1:10000, Upstate, Lake Placid, N.Y., MO), overnight at 4° C. The membranes were washed and incubated in the blocking solution with the proper HRP-conjugated secondary antibody at 1/5000 dilution (Chemicon, Temecula, Calif.) for 1 hour at room temperature. After washing three times in PBS containing 0.1% Tween-20, the signals were visualized by autoradiography (Fuji Medical X-ray film, Fuji Photos, Tokyo) using enhanced chemi-luminescence (ECL detection system; Perkin-Elmer, Boston, Calif.). Western blot quantification was performed by scanning the auto-radiographs with a computerized densitometer. Signal intensities were determined by densitometry analysis (Fuji film LAS-1000 plus pictography) using the program Phoreticx 1D (Phoreticx International).

Substance: Sodium vanadate
- Stat6 (pT641) cellular response (Stat6 (pT641); 4 hrs): −
- Stat6 (pT641) cellular response (Stat6 (pT641); 8 hrs): −
- SMN2 splicing pattern SMN2-NSC34 (SMN2): +++
- efficiency in increasing full length SMN2 transcripts relative to the other compounds (SMN2): most efficient
- treatment time after which the full length SMN2 expression level was enhanced (SMN2): 2 to 4 h
- ERK1/2 (pT202/pY204) cellular response (ERK1/2 (pT202/pY204); 4 hrs): +
- ERK1/2 (pT202/pY204) cellular response (ERK1/2 (pT202/pY204); 8 hrs): ++
- Stat2 (pY705) cellular response (Stat2 (pY705); 4 hrs): +/−
- Stat2 (pY705) cellular response (Stat2 (pY705); 8 hrs): +/−
- Jak1 (pY1022/pY1023) cellular response (Jak1 (pY1022/pY1023); 4 hrs): +/−
- Jak1 (pY1022/pY1023) cellular response (Jak1 (pY1022/pY1023); 8 hrs): +

— patent publication US20080187512A1, “Treatment for spinal muscular atrophy” (Academia Sinica, priority 2007, published 2008)
